Measurements: patent US20250340574A1, “MODULATORS OF CYSTIC FIBROSIS TRANSMEMBRANE CONDUCTANCE REGULATOR” (Vertex Pharmaceuticals Incorporated, priority 2022, published 2025)

How the values were obtained:
Type in all cases: cell-based
[1] = molecular target: T1, CFTR (F508del/MF-HBE cells) (Homo sapiens, UniProt P13569, DEL508-508); experiment: Ussing chamber assay of CFTR-mediated short-circuit currents, Assay B (0.00001 μM to 25 μM, 12 concentrations); details: with 33 nM potentiator and 18 μM Tezacaftor, 20% human serum; for Emax: read-out: B Max activity (%)
T1 construct: human bronchial epithelial (HBE) cells derived from CF subjects heterozygous for F508del and a minimal function CFTR mutation (F508del/MF-HBE); endogenous in cells; host or cells: Primary human bronchial epithelial cells from CF subjects (F508del/MF genotype), differentiated at an air-liquid interface
Protocol: Ussing chamber experiments were performed using human bronchial epithelial (HBE) cells derived from CF subjects heterozygous for F508del and a minimal function CFTR mutation (F508del/MF-HBE) and cultured as previously described (Neuberger T, Burton B, Clark H, Van Goor F Methods Mol Biol 2011:741:39-54). After four days the apical media was removed, and the cells were grown at an air liquid interface for >14 days prior to use.
To isolate the CFTR-mediated short-circuit (ISC) current, F508del/MF-HBE grown on Costar® Snapwell™ cell culture inserts were mounted in an Ussing chamber and the transepithelial ISC was measured under voltage-clamp recording conditions (Vhold=0 mV) at 37° C. The basolateral solution contained (in mM) 145 NaCl, 0.83 K2HPO4, 3.3 KH2PO4, 1.2 MgCl2, 1.2 CaCl2, 10 Glucose, 10 HEPES (pH adjusted to 7.4 with NaOH) and the apical solution contained (in mM) 145 NaGluconate, 1.2 MgCl2, 1.2 CaCl2, 10 glucose, 10 HEPES (pH adjusted to 7.4 with NaOH) and 30 μM amiloride to block the epithelial sodium channel. Forskolin (20 μM) was added to the apical surface to activate CFTR, followed by apical addition of a CFTR inhibitor cocktail consisting of BPO, GlyH-101, and CFTR inhibitor 172 (each at 20 μM final assay concentration) to specifically isolate CFTR currents. The CFTR-mediated ISC (μA/cm^2) for each condition was determined from the peak forskolin response to the steady-state current following inhibition.
The activity of the CFTR corrector compounds on the CFTR-mediated ISC was determined in Ussing chamber studies as described above. The F508del/MF-HBE cell cultures were either incubated with the corrector compounds at a range of concentrations in combination with 33 nM (6R,12R)-17-amino-12-methyl-6,15-bis(trifluoromethyl)-13,19-dioxa-3,4,18-triazatricyclo[12.3.1.12,5]nonadeca-1(18),2,4,14,16-pentaen-6-ol and 18 μM Tezacaftor or were incubated with the corrector compounds at a single fixed concentration of 1 μM in combination with 44 nM (6R,12R)-17-amino-12-methyl-6,15-bis(trifluoromethyl)-13,19-dioxa-3,4,18-triazatricyclo[12.3.1.12,5]nonadeca-1(18),2,4,14,16-pentaen-6-ol and 18 μM Tezacaftor for 18-24 hours at 37° C. and in the presence of 20% human serum. The concentration of corrector compounds with 44 nM or 33 nM (6R,12R)-17-amino-12-methyl-6,15-bis(trifluoromethyl)-13,19-dioxa-3,4,18-triazatricyclo[12.3.1.12,5]nonadeca-1(18),2,4,14,16-pentaen-6-ol and 18 μM Tezacaftor during the 18-24 hours incubations was kept constant throughout the Ussing chamber measurement of the CFTR-mediated ISC to ensure compounds were present throughout the entire experiment. The efficacy and potency of the putative F508del correctors was compared to that of the known Vertex corrector, (14S)-8-[3-(2-{Dispiro[2.0.2.1]heptan-7-yl}ethoxy)-1H-pyrazol-1-yl]-12,12-dimethyl-2λ^6-thia-3,9,11,18,23-pentaazatetracyclo[17.3.1.111,14.05,10]tetracosa-1(22),5,7,9,19(23),20-hexaene-2,2,4-trione, in combination with 18 μM Tezacaftor and 1 μM Ivacaftor.
• Assay A: 0.1 μM to 25 μM, 6 concentrations • Assay B: 0.00001 μM to 25 μM, 12 concentrations • Assay C: 0.026 μM to 25 μM, 6 concentrations • Assay D: Activity at single concentration of 1 μM

[2] = molecular target: T1, CFTR (F508del/MF-HBE cells); experiment: Ussing chamber assay of CFTR-mediated short-circuit currents, Assay A (0.1 μM to 25 μM, 6 concentrations); details: with 33 nM potentiator and 18 μM Tezacaftor, 20% human serum; for Emax: 18-24 hours, read-out: A Max activity (%)
Procedure, shortened: (§1)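 Short-circuit current was recorded at 37 °C under voltage clamp (0 mV) with amiloride 30 μM apically, forskolin 20 μM activation, then BPO/GlyH-101/inh-172 (20 μM each) to isolate CFTR current. Before recording, corrector exposure lasted 18–24 h with 18 μM tezacaftor, 20% human serum, and 33 nM (dose–response) or 44 nM (1 μM fixed) potentiator, maintained throughout.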

[3] = molecular target: T1, CFTR (F508del/MF-HBE cells); experiment: Ussing chamber assay of CFTR-mediated short-circuit currents, Assay C (0.026 μM to 25 μM, 6 concentrations); details: with 33 nM potentiator and 18 μM Tezacaftor, 20% human serum; for Emax: read-out: C Max activity (%)
Procedure, shortened: as §1

[4] = molecular target: T1, CFTR (F508del/MF-HBE cells); experiment: Ussing chamber assay of CFTR-mediated short-circuit currents, Assay D (single concentration of 1 μM); details: with 44 nM potentiator and 18 μM Tezacaftor, 18-24 hours, 20% human serum
Procedure, shortened: as §1

T1 sequence (P13569 with tags, fused parts or gaps DEL508-508): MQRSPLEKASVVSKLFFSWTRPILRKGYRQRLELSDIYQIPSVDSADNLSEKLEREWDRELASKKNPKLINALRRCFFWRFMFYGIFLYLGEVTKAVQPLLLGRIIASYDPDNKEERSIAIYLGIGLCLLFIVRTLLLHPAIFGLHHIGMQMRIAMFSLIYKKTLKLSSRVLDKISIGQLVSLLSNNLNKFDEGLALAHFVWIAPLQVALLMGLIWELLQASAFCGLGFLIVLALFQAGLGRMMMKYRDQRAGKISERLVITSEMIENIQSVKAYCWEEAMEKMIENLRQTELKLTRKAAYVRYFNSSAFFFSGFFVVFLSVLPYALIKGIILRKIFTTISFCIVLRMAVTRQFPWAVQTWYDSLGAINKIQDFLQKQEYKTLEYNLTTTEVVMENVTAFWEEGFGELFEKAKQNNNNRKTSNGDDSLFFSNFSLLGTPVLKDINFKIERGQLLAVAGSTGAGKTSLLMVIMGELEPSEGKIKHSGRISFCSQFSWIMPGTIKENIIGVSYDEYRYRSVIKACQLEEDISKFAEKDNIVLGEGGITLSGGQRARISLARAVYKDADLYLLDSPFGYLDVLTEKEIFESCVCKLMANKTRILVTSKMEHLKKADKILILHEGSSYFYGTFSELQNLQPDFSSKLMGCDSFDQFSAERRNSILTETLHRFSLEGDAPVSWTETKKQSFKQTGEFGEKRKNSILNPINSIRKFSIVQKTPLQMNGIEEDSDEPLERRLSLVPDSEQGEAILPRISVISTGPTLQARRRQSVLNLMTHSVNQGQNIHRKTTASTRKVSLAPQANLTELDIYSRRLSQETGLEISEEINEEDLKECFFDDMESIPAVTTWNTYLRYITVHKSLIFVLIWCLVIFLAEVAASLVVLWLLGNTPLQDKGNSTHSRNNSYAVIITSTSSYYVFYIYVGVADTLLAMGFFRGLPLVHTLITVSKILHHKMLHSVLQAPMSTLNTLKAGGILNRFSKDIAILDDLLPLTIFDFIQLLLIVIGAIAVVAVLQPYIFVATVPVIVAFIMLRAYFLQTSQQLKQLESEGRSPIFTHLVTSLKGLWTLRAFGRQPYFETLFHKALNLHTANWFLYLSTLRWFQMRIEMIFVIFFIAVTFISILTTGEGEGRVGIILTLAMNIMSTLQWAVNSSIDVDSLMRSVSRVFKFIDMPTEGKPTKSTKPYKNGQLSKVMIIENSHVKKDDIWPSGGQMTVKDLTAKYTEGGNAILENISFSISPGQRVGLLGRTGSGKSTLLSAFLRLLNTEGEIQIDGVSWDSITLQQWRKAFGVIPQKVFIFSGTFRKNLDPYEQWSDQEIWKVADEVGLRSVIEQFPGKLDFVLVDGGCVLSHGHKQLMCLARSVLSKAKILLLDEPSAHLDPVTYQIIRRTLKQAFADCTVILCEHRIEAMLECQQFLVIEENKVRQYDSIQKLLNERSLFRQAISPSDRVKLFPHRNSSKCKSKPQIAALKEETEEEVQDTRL

Row | Structure (SMILES) | Emax ([1]; 18-24 hours) [%] | EC50 [1] [nM] | Emax [2] [%] | EC50 [2] [nM] | further results
1 | Cc1cccc(C)c1-c1cc2nc(n1)NS(=O)(=O)c1cccc(c1)C(=O)N(Cc1cnc3oc(C4CC4)cc3n1)[C@H](CC1CCC1)CO2 [Compound I-104, (11R)-11-(cyclobutylmethyl)-12-[(6-cyclopropylfuro[2,3-b]pyrazin-2-yl)methyl]-6-(2,6-dimethylphenyl)-2,2-dioxo-9-oxa-2λ^6-thia-3,5,12,19-tetrazatricyclo[12.3.1.14,8]nonadeca-1(18),4(19),5,7,14,16-hexaen-13-one] | > 60 | 3000 to 30000 | > 60 | < 1000 | –
2 | Cc1cccc(CC(C)C)c1-c1nc2nc(c1C)OC[C@@H](CC(C)(C)C)N(Cc1cnc3cc(C(C)(C)C)n(C)c3n1)C(=O)c1cccc(c1)S(=O)(=O)N2 [Compound I-206, (5P,11R)-12-({6-tert-butyl-5-methyl-5H-pyrrolo[2,3-b]pyrazin-3-yl}methyl)-11-(2,2-dimethylpropyl)-7-methyl-6-[2-methyl-6-(2-methylpropyl)phenyl]-9-oxa-2λ^6-thia-3,5,12,19-tetraazatricyclo[12.3.1.1∧{4,8}]nonadeca-1(17),4(19),5,7,14(18),15-hexaene-2,2,13-trione] | – | < 1000 | – | – | B Max activity (%) ([1]; 18-24 hours): +++ (+++ is >60%); C Max activity (%) ([3]; 18-24 hours): +++ (+++ is >60%); EC50 [3]: < 1000 nM
3 | Cc1cccc(C)c1-c1cc2nc(n1)NS(=O)(=O)c1cccc(c1)C(=O)N(Cc1cnc3cc(C4CC4)n(C)c3n1)[C@H](COC(C)C)CO2 [Compound I-151] | > 60 | 3000 to 30000 | – | – | –
4 | Cc1cccc(C)c1-c1cc2nc(n1)NS(=O)(=O)c1cccc(c1)C(=O)N(Cc1cnc3oc(C(C)C)cc3n1)[C@H](CC1CC1)CO2 [Compound I-57] | > 60 | 3000 to 30000 | > 60 | < 1000 | –
5 | Cc1cccc(C)c1-c1nc2nc(c1C)OC[C@@H](CC(C)(C)C)N(Cc1cnc3nc(C(C)C)n(C)c3n1)C(=O)c1cccc(c1)S(=O)(=O)N2 [Compound I-167] | > 60 | < 1000 | – | – | –
6 | Cc1cccc(C)c1-c1cc2nc(n1)NS(=O)(=O)c1cccc(c1)C(=O)N(Cc1cnc3oc(C4(C)CC4)cc3n1)[C@H](CC13CC(C1)C3)CO2 [Compound I-97] | > 60 | 1000 to 3000 | > 60 | < 1000 | –
7 | Cc1cccc(C)c1-c1cc2nc(n1)NS(=O)(=O)c1cccc(c1)C(=O)N(Cc1cnc3oc(C4CC4)cc3n1)[C@H](CCC(C)C)CO2 [Compound I-130] | > 60 | 3000 to 30000 | – | – | –
8 | Cc1cccc(C)c1-c1cc2nc(n1)NS(=O)(=O)c1cccc(c1)C(=O)N(Cc1cnc3oc(C4CC4)cc3n1)[C@H](COC1CCCC1)CO2 [Compound I-118] | > 60 | 3000 to 30000 | – | – | –
9 | Cc1cccc(C)c1-c1cc2nc(n1)NS(=O)(=O)c1cccc(c1)C(=O)N(Cc1cnc3oc(C4CCC4)cc3n1)[C@H](COC(C)C)CO2 [Compound I-138] | > 60 | 3000 to 30000 | – | – | –
10 | Cc1cccc(C)c1-c1cc2nc(n1)NS(=O)(=O)c1cccc(c1)C(=O)N(Cc1cnc3oc(C4CC4)cc3n1)[C@H](CC1CCCC1)CO2 [Compound I-61] | > 60 | 3000 to 30000 | – | – | –
11 | COCCc1c(C(C)(C)C)n(C)c2nc(CN3C(=O)c4cccc(c4)S(=O)(=O)Nc4nc(c(OC)c(-c5c(C)cccc5CC(C)C)n4)OC[C@H]3CC(C)(C)C)cnc12 (atropisomer, axis not shown) [IV-94] | – | < 1000 | – | – | Emax [1]: > 60%; EC50 [3]: < 1000 nM; Emax [3]: > 60%
12 | Cc1cccc(C)c1-c1cc2nc(n1)NS(=O)(=O)c1cccc(c1)C(=O)N(Cc1cnc3nc(C4CC4)n(C)c3n1)[C@H](COC(C)C)CO2 [Compound I-139] | > 60 | 3000 to 30000 | – | – | –
13 | Cc1cccc(C)c1-c1nc2nc(c1C)OC[C@@H](COC(C)C)N(Cc1cnc3cc(C(C)(C)C)n(C)c3n1)C(=O)c1cccc(c1)S(=O)(=O)N2 [Compound I-182] | > 60 | < 1000 | – | – | D activity at 1 μM (%) [4]: +++ (+++ is >60%); Emax ([3]; 18-24 hours): > 60%; EC50 [3]: < 1000 nM
14 | Cc1cccc(C)c1-c1cc2nc(n1)NS(=O)(=O)c1cccc(c1)C(=O)N(Cc1cnc3oc(C(C)C)c(C)c3n1)[C@H](CC1CCCC1)CO2 [Compound I-64] | – | – | > 60 | < 1000 | –
15 | Cc1cccc(C)c1-c1cc2nc(n1)NS(=O)(=O)c1cccc(c1)C(=O)N(Cc1cnc3oc(C(C)C)cc3n1)[C@H](CC1CCCCC1)CO2 [Compound I-9] | – | – | > 60 | < 1000 | –
16 | Cc1cccc(C)c1-c1cc2nc(n1)NS(=O)(=O)c1cccc(c1)C(=O)N(Cc1cnc3oc(C(C)C)c(C#N)c3n1)[C@H](CC13CC(C1)C3)CO2 [Compound I-85] | – | – | > 60 | < 1000 | –
17 | Cc1cccc(CC(C)C)c1-c1nc2nc(c1C)OC[C@@H](CC13CC(C1)C3)N(Cc1cnc3cc(C(C)(C)C)n(C)c3n1)C(=O)c1cccc(c1)S(=O)(=O)N2 [IV-1] | – | < 1000 | – | – | Emax [1]: > 60%
18 | Cc1cccc(C)c1-c1cc2nc(n1)NS(=O)(=O)c1cccc(c1)C(=O)N(Cc1cnc3cc(C(C)C)n(C)c3n1)[C@H](CC13CC(C1)C3)CO2 [Compound I-40] | – | – | > 60 | < 1000 | –
19 | Cc1cccc(C)c1-c1cc2nc(n1)NS(=O)(=O)c1cccc(c1)C(=O)N(Cc1cnc3oc(C(C)C)c(C)c3n1)[C@@H](COC1CCC1)CO2 (stereo in doubt) [Compound I-93] | – | – | > 60 | < 1000 | –
20 | Cc1cccc(C)c1-c1cc2nc(n1)NS(=O)(=O)c1cccc(c1)C(=O)N(Cc1nc3c(cc1F)nc(C(C)C)n3C)[C@H](CC(C)(C)C)CO2 [Compound I-69] | – | – | > 60 | < 1000 | –
21 | Cc1cccc(C)c1-c1cc2nc(n1)NS(=O)(=O)c1cccc(c1)C(=O)N(Cc1cnc3oc(C(C)C)cc3n1)[C@H](CC1CCCO1)CO2 (single isomer, unassigned) [Compound I-18] | – | – | > 60 | < 1000 | –
22 | Cc1cccc(C)c1-c1cc2nc(n1)NS(=O)(=O)c1cccc(c1)C(=O)N(Cc1cnc3oc(C(C)C)cc3n1)[C@H](CCC(C)C)CO2 [Compound I-2] | – | – | > 60 | < 1000 | –
